Reference: patent US5629430A, “Trifluoromethylpyrroloindolecarboxylic acid ester and process for production thereof” (Kyorin Pharmaceutical Co., Ltd., priority 1992, dated 1997)
In brackets after ≈: the same amount, converted by molar mass. Read-outs that look alike come from different tables or passages of the source.

Experiments:
[1] = tested on: P388 mouse leukemia cells; assay: Activity against tumor cell growth (P388, MTT, 72 h); type: cell-based; settings: read-out: IC50 (50% growth inhibition concentration)
Experimental: Using a culture medium RPMI1640 supplemented with 10% inactivated bovine fetal serum, 2 mM glutamine, 100 μ/ml kanamycin sulfate, and 5 μM 2-hydroxyethyldisulfide (This culture medium is hereinafter referred to simply as "culture medium"), P388 mouse leukemia cells were diluted to a concentration of 1.5×10^5 cells/ml in the culture medium, and were placed in each well of 96-well multiplate in 60 μl portions. Separately, the test compound was dissolved in dimethylsulfoxide and was adequately diluted with the culture medium. The diluted solution containing test compound was added to the wells of the above plate respectively in 60 μl portions. Then the cells were incubated in a CO2 -incubator (5% CO2, 37° C.) for 72 hours.
The surviving cell numbers were measured according to the Mosmann's method (J. Immunol. Meth., 65 55-63, 1983) as follows. A 2.5 mg/ml solution of MTT (3-[4,5-dimethylthiazol-2-yl]-2,5-diphenyltetrazolium bromide) in Dulbecco's phosphate buffer solution (PBS) was prepared and added to each of the wells by 20 μl. The cells were further incubated for 3 hours. A 150 μl portion of 0.04N hydrochloric acid-isopropanol solution was added to each of the wells, and MTT-formazane formed was allowed to dissolve by pipetting. The absorbance of the solutions was measured at 540 nm taking the no-cell-containing [solution as the background. The 50% growth inhibition concentration (ICs50) was calculated from ratio of the absorbances of the treated samples to the absorbance of the no-medicine-treated sample, and from the concentration of the test compound.

[2] = tested on: Sarcoma-180 cells; assay: Antineoplastic activity, mice having Sarcoma-180 cells transplanted subcutaneously; type: in vivo, mouse (female, CDR strain); settings: Mus musculus, Sarcoma-180, iv, 144 h, tumor weighed six days after dosage, read-out: T/C (average tumor weight, dosed vs. solvent-dosed control)
Experimental: (§1) The test compound was dissolved in dimethylsulfoxide, and the solution was adequately diluted with 10% Emulfore EL620(produced by Rhone Poulenc Co.) to prepare the test compound solution. The antineoplastic activity was evaluated as below.
To the lateral region of a female mouse (CDR strain, 5 to 6 week age), 3.6×10^6 to 5×10^6 Sarcoma-180 cells were transplanted subcutaneously. Next day, the test medicine solution was injected into the tail vein in a single dose. Eight to twelve mice were employed for the solvent-dosed control group, and five mice were employed for the dosed group. Six days after the dosage, the tumor was cut out, and the weight thereof was measured. The antineoplastic effect was evaluated by the ratio (T/C) of the average tumor weight of the dosed group (T) to the average tumor weight of the solvent-dosed control group (C).

[3] = tested on: Colon-26 cells; assay: Antineoplastic activity, mice having Colon-26 cells transplanted subcutaneously; type: in vivo, mouse (female, CDF1 strain); settings: Mus musculus, Colon 26, iv, 168 h, read-out: T/C (average tumor weight, dosed vs. solvent-dosed control)
Experimental: as §1
To the lateral region of a female mouse (CDF1 strain, 8 to 12 week age), 1×10^6 Colon-26 cells were transplanted subcutaneously. On the sixth day after the transplantation, the test medicine solution-was injected into the tail vein in a single dose. Seven to twelve mice were employed for the solvent-dosed control group, and five mice were employed for the dosed group. One week after the dosage, the tumor was cut out, and the weight thereof was measured. The antineoplastic effect was evaluated by the ratio (T/C) of the average tumor weight of the dosed group (T) to the average tumor weight of the solvent-dosed control group (C).

[4] = P388 mouse leukemia cells, 72 h, 37° C., MTT
[5] = i.v. 0.5 mg/kg single dose on sixth day, tumor weighed one week after dosage

Structure (SMILES)	IC50 [1, 4] [ng/mL]	response vs control in vivo at 0.5 mg/kg [3, 5] [%]	also measured
COC(=O)c1c(C(F)(F)F)[nH]c2c(O)cc3c(c12)C(CBr)CN3C(=O)c1cc2cc(NC(=O)c3cc4ccccc4cn3)ccc2[nH]1 (stereo not drawn) [Example 43, Methyl 1-bromomethyl-5-hydroxy-3-[5-[(isoquinolin-3-ylcarbonyl)amino]-1H-indol-2-ylcarbonyl]-7-trifluoromethyl-1,2,3,6-tetrahydropyrrolo[3,2-e]indole-8-carboxylate]	0.1 (≈ 0.142 nM)	–	response vs control in vivo at 0.125 mg/kg ([2]; i.v. 0.125 mg/kg single dose): 25%
COC(=O)c1c(C(F)(F)F)[nH]c2c(O)cc3c(c12)C(CCl)CN3C(=O)c1cc2cc(NC(=O)c3cc4c(OC)c(OC)c(OC)cc4nn3)ccc2[nH]1 (stereo not drawn) [Example 50, Methyl 1-chloromethyl-5-hydroxy-7-trifluoromethyl-3-[5-[(5,6,7-trimethoxycinnolin-3-ylcarbonyl)amino]-1H-indol-2-ylcarbonyl]-1,2,3,6-tetrahydropyrrolo[3,2-e]indole-8-carboxylate]	4.5 (≈ 5.98 nM)	–	response vs control in vivo at 4 mg/kg ([2]; i.v. 4.0 mg/kg single dose): 15%
COC(=O)c1c(C(F)(F)F)[nH]c2c(O)cc3c(c12)[C@H](CCl)CN3C(=O)c1cc2cc(NC(=O)c3cc4cccc(OC)c4o3)ccc2[nH]1 [Example 63, Methyl (1S)-1-chloromethyl-5-hydroxy-3-[5-[(7-methoxybenzofuran-2-ylcarbonyl)amino]-1H-indol-2-ylcarbonyl]-7-trifluoromethyl-1,2,3,6-tetrahydropyrrolo[3,2-e]indole-8-carboxylate]	0.55 (≈ 0.808 nM)	4	–
COC(=O)c1c(C(F)(F)F)[nH]c2c(O)cc3c(c12)[C@H](CCl)CN3C(=O)c1cc2cc(NC(=O)c3cc4c(OC)cccc4o3)ccc2[nH]1 [Example 75, Methyl (1S)-1-chloromethyl-5-hydroxy-3-[5-(4-methoxybenzofuran-2-ylcarbonyl)amino-1H-indol-2-ylcarbonyl]-7-trifluoromethyl-1,2,3,6-tetrahydropyrrolo[3,2-e]indole-8-carboxylate]	0.74 (≈ 1.09 nM)	17	–
COC(=O)c1c(C(F)(F)F)[nH]c2c(O)cc3c(c12)[C@H](CCl)CN3C(=O)c1cc2cc(NC(=O)c3cc4cc(OC)ccc4o3)ccc2[nH]1 [Example 76, Methyl (1S)-1-chloromethyl-5-hydroxy-3-[5-(5-methoxybenzofuran-2-ylcarbonyl)amino-1H-indol-2-ylcarbonyl]-7-trifluoromethyl-1,2,3,6-tetrahydropyrrolo[3,2-e]indole-8-carboxylate]	0.2 (≈ 0.294 nM)	6	–
COC(=O)c1c(C(F)(F)F)[nH]c2c(O)cc3c(c12)[C@H](CCl)CN3C(=O)c1cc2cc(NC(=O)c3cc4ccc(OC)cc4o3)ccc2[nH]1 [Example 77, Methyl (1S)-1-chloromethyl-5-hydroxy-3-[5-(6-methoxybenzofuran-2-ylcarbonyl)amino-1H-indol-2-ylcarbonyl]-7-trifluoromethyl-1,2,3,6-tetrahydropyrrolo[3,2-e]indole-8-carboxylate]	0.23 (≈ 0.338 nM)	6	–
COC(=O)c1c(C(F)(F)F)[nH]c2c(O)cc3c(c12)[C@H](CCl)CN3C(=O)c1cc2cc(NC(=O)c3cc4cc(OC)c(OC)c(OC)c4o3)ccc2[nH]1 [Example 78, Methyl (1S)-1-chloromethyl-5-hydroxy.-7trifluoromethyl-3-[5-(5,6,7-trimethoxybenzofuran-2-ylcarbonyl)amino-1H-indol-2-ylcarbonyl]-1,2,3,6-tetrahydropyrrolo[3,2-e]indole-8-carboxylate]	0.33 (≈ 0.445 nM)	–	response vs control in vivo at 0.125 mg/kg ([3]; i.v. 0.125 mg/kg single dose on sixth day, tumor weighed one week after dosage): 26%
CCN(CC)c1ccc2cc(C(=O)Nc3ccc4[nH]c(C(=O)N5C[C@@H](CCl)c6c5cc(O)c5[nH]c(C(F)(F)F)c(C(=O)OC)c65)cc4c3)oc2c1 [Example 79, Methyl (1S)-1-chloromethyl-3-[5-(6-diethylaminobenzofuran-2-ylcarbonyl)amino-1H-indol-2-ylcarbonyl]-5-hydroxy-7-trifluoromethyl-1,2,3,6tetrahydropyrrolo[3,2-e]indole-8-carboxylate]	2.1 (≈ 2.91 nM)	9	–
COC(=O)c1c(C(F)(F)F)[nH]c2c1[C@@]13C[C@@H]1CN(C(=O)c1cc4cccc(OC)c4o1)C3=CC2=O [Example 86, Methyl (7bR, 8aS)-2-(7-methoxybenzofuran-2-ylcarbonyl)-6-trifluoromethyl-1,2,8,8a-tetrahydrocyclopropa[c]pyrrolo[3,2-e]indol-4 (5H)-one-7-carboxylate]	1.1 (≈ 2.26 nM)	40	–
COC(=O)c1c(C(F)(F)F)[nH]c2c1[C@@]13C[C@@H]1CN(C(=O)/C=C/c1ccc(OC)cc1)C3=CC2=O [Example 90, Methyl (7bR, 8aS)-2-[2-(4-methoxyphenyl)ethylene-1-ylcarbonyl)-6-trifluoromethyl-1,2,8,8a-tetrahydrocyclopropa[c]pyrrolo[3,2-e]indol-4 (5H)-one-7-carboxylate]	0.9 (≈ 1.91 nM)	–	response vs control in vivo at 1 mg/kg ([3]; i.v. 1.0 mg/kg single dose on sixth day, tumor weighed one week after dosage): 31%
COC(=O)c1c(C(F)(F)F)[nH]c2c(OC(=O)N3CCN(C)CC3)cc3c(c12)[C@H](CCl)CN3C(=O)c1cc2cc(NC(=O)c3cc4c(OC)c(OC)c(OC)cc4cn3)ccc2[nH]1 [Example 97]	–	–	IC50 ([1]; Mus musculus, P388, 72 h): 5.8 ng/mL (≈ 6.6 nM); response vs control in vivo at 0.5 mg/kg [3]: 11%
COC(=O)c1c(C(F)(F)F)[nH]c2c(OC(=O)N3CCN(C)CC3)cc3c(c12)[C@H](CCl)CN3C(=O)c1cc2cc(NC(=O)c3cc4c(cn3)[nH]c3ccccc34)ccc2[nH]1 [Example 98, Methyl (1S)-1-chloromethyl-5-(4-methylpiperazin-1-ylcarbonyl)oxy-3-[5-[(9H-pyrido[3,4-b]indol-3-ylcarbonyl)amino]-1H-indol-2-ylcarbonyl]-7-trifluoromethyl-1,2,3,6-tetrahydropyrrolo[3,2-e]indole-8-carboxylate]	–	–	IC50 ([1]; Mus musculus, P388, 72 h): 5.7 ng/mL (≈ 6.89 nM); response vs control in vivo at 0.5 mg/kg [3]: 29%
COC(=O)c1c(C(F)(F)F)[nH]c2c(OC(=O)N3CCN(C)CC3)cc3c(c12)[C@H](CCl)CN3C(=O)c1cc2cc(NC(=O)c3cc4cccc(OC)c4o3)ccc2[nH]1 [Example 99, Methyl (1S)-1-chloromethyl-3-[5[(7-methoxybenzofuran-2-ylcarbonyl)amino]-1H-indol-2-ylcarbonyl]-5-(4-methylpiperazin-1-ylcarbonyl)oxy-7-trifluoromethyl-1,2,3,6-tetrahydropyrrolo[3,2-e]indole-8-carboxylate]	–	–	response vs control in vivo at 2 mg/kg [3]: 5%
COC(=O)c1c(C(F)(F)F)[nH]c2c(OC(=O)N3CCN(C)CC3)cc3c(c12)[C@H](CCl)CN3C(=O)c1cc2cc(NC(=O)c3cc4ccccc4cn3)ccc2[nH]1 [Example 107, Methyl (1S)-1-chloromethyl-3-[5-[(isoquinolin-3-ylcarbonyl)amino]-1H-indol-2-ylcarbonyl]-5-(4-methylpiperazin-1-ylcarbonyl)oxy-7-trifluoromethyl-1,2,3,6-tetrahydropyrrolo[3,2-e]indole-8-carboxylate]	–	–	IC50 ([1]; Mus musculus, P388, 72 h): 4.6 ng/mL (≈ 5.84 nM); response vs control in vivo at 0.5 mg/kg [3]: 7%
